Results on 6 compounds are retold here after ChEMBL document CHEMBL1147296, “Faeriefungin: a new broad-spectrum antibiotic from Streptomyces griseus var. autotrophicus” (J Nat Prod, 1989).

Converted amounts (≈) assume the structure as drawn.

Series [1] relates to Microsporum canis. Nature of the series: Antifungal activity against Microsporum canis after 2 to 4 days. Format: functional.
The test system of series [2] is Trichophyton rubrum. In words: Antifungal activity against Trichophyton rubrum after 2 to 4 days. It is filed as functional.
The test system of series [3] is Candida albicans. In words: Antifungal activity against Candida albicans MSU-SM 543 after 2 to 4 days. Format: functional.
The test system of series [4] is Aspergillus fumigatus. In words: Antifungal activity against Aspergillus fumigatus MSU-SM 920 after 2 to 4 days. It is filed as functional.
Series [5] can be described thus: Toxicity against human erythrocytes at 50 ppm after 60 mins by turbidimetry. The following applies: erythrocyte, 1 h. Format: cell-based.
Series [6] in a line: Toxicity against human erythrocytes at 0.05 ppm after 60 mins by turbidimetry. It is filed as cell-based. The following applies: erythrocyte, 1 h.
A short description of series [7]: Toxicity against rat WB-F344 cells assessed as cell viability at 50 ppm after 1 hr using trypan blue staining by LDH assay. It is filed as cell-based. Particulars: read-out: Activity.
Series [8] is described as follows: Toxicity against rat WB-F344 cells assessed as cell viability at 20 ppm after 1 hr using trypan blue staining by LDH assay. Format: cell-based. The following applies: read-out: Activity.
Series [9] in a line: Toxicity against rat WB-F344 cells assessed as cell viability at 0.5 ppm after 1 hr using trypan blue staining by LDH assay. It is filed as cell-based. The following applies: read-out: Activity.
The nature of series [10]: Toxicity against rat WB-F344 cells assessed as cell viability at 0.05 ppm after 1 hr using trypan blue staining by LDH assay. It is filed as cell-based. The following applies: read-out: Activity.
A short description of series [11]: Toxicity against human erythrocytes at 20 ppm after 60 mins by turbidimetry. It is filed as cell-based. Particulars: erythrocyte, 1 h.
Series [12] can be described thus: Toxicity against human erythrocytes at 0.5 ppm after 60 mins by turbidimetry. Format: cell-based. Particulars: erythrocyte, 1 h.

A word on the MIC: it is the smallest concentration in the dilution series that meets the test's criterion for growth inhibition. A low value points to greater potency. Consider `Clc1ccccc1C(c1ccccc1)(c1ccccc1)n1ccnc1` [CLOTRIMAZOLE], for which the MIC in series [1] was 16 µg/mL (≈ 46.4 µM); in series [2], 80 µg/mL (≈ 232 µM); in [3], 1 µg/mL (≈ 2.9 µM); in [4] it was 1 µg/mL (≈ 2.9 µM).

For `Clc1ccc(COC(Cn2ccnc2)c2ccc(Cl)cc2Cl)c(Cl)c1` (configuration not stated) [MICONAZOLE], the MIC in series [1] was 16 µg/mL (≈ 38.4 µM); in [2] it was 80 µg/mL (≈ 192 µM); in [3], 1 µg/mL (≈ 2.4 µM); in series [4] it was 8 µg/mL (≈ 19.2 µM).

As to NYSTATIN, the MIC is 100 µg/mL in series [1], 100 µg/mL in series [2], 3.2 µg/mL in [3] and 100 µg/mL in [4].

Turning to `C[C@@H]1C/C=C/C=C/C=C/C=C/[C@H](O[C@@H]2O[C@H](C)[C@@H](O)[C@H](N)[C@@H]2O)C[C@@H]2O[C@](O)(C[C@@H](O)C[C@H]3O[C@@H]3/C=C/C(=O)O1)C[C@H](O)[C@H]2C(=O)O` [NATAMYCIN], the MIC was determined as 16 µg/mL (≈ 24 µM) in series [1], 16 µg/mL (≈ 24 µM) in series [2], 5.5 µg/mL (≈ 8.26 µM) in [3] and 16 µg/mL (≈ 24 µM) in [4].

For `CC(=O)N1CCN(c2ccc(OCC3COC(Cn4ccnc4)(c4ccc(Cl)cc4Cl)O3)cc2)CC1` (configuration not stated) [KETOCONAZOLE], the MIC in [1] came to 5.5 µg/mL (≈ 10.3 µM); in series [2], 5.5 µg/mL (≈ 10.3 µM); in series [3], 0.5 µg/mL (≈ 0.941 µM); in series [4], 1 µg/mL (≈ 1.88 µM).

For the compound `C[C@@H]1[C@H](O)[C@@H](C)/C=C/C=C/C=C/C=C/C=C/C=C/C=C/[C@H](O[C@@H]2O[C@H](C)[C@@H](O)[C@H](N)[C@@H]2O)C[C@@H]2O[C@](O)(C[C@@H](O)C[C@@H](O)[C@H](O)CC[C@@H](O)C[C@@H](O)CC(=O)O[C@H]1C)C[C@H](O)[C@H]2C(=O)O` [AMPHOTERICIN B], the Activity entry in series [5] was “Toxic”; in series [6], “Non-toxic”; in series [11] it was “Toxic”; in [12], “Non-toxic”. The MIC in series [1] was found to be 16 µg/mL (≈ 17.3 µM); in [2], 16 µg/mL (≈ 17.3 µM); in [3] it was 3.2 µg/mL (≈ 3.46 µM); in series [4], 80 µg/mL (≈ 86.6 µM). Also, in [7], the viability at 1 h, 50 ppm is 0%. In series [8], the viability at 1 h, 20 ppm was found to be 0%. Moreover, the viability at 1 h, 0.5 ppm in series [9] was 100%. In addition, in [10], the viability at 1 h, 0.05 ppm is 100%.
